ChEMBL document CHEMBL1149587 (2007)

Assays:
Type in all cases: functional
[1] = system: Rattus norvegicus; experiment: Elimination of D-xylose from 30 days old Sprague-Dawley suckling rat urine at 4 mg, po
[2] = system: Rattus norvegicus; experiment: Elimination of D-xylose from 15 days old Sprague-Dawley suckling rat urine at 4 mg, po
[3] = system: Rattus norvegicus; experiment: Elimination of D-xylose from 18 days old Sprague-Dawley suckling rat urine at 4 mg, po

SMILES	Activity [1]	Activity [2]	Activity [3]
OC[C@H]1O[C@@H](O[C@@H]2COC(O)[C@H](O)[C@H]2O)[C@H](O)[C@@H](O)[C@H]1O (some centres undefined)	3.05%	23.66%	6.99%
OC[C@H]1O[C@@H](O[C@H]2C(O)OC[C@@H](O)[C@@H]2O)[C@H](O)[C@@H](O)[C@H]1O (some centres undefined)	9.43%	23.1%	20.71%
OC[C@H]1O[C@@H](O[C@H]2[C@H](O)COC(O)[C@@H]2O)[C@H](O)[C@@H](O)[C@H]1O (some centres undefined)	19.39%	23.3%	20.63%
